Experimental data taken from patent publication US20100267561A1, “HERBICIDAL PYRIDAZINONE DERIVATIVES” (priority 2007, published 2010).

Columns and labels:
Format in all cases: in vivo
[1] = test system: eastern black (E.B.) nightshade (Solanum ptycanthum); assay: Test B pre-/postemergence plant response; details: Preemergence
In short: (§1)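 Visual scoring from 0 (no effect) to 100 (complete control) against untreated controls was done 13 to 15 days after greenhouse treatment. Chemicals were formulated in a surfactant-containing non-phytotoxic solvent and applied to soil preemergence or to 1- to 4-leaf (2-18 cm) plants postemergence.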

[2] = test system: giant foxtail (Setaria faberii); assay: Test B pre-/postemergence plant response; details: for Foxtail, Giant plant response rating: 8 g ai/ha
In short: as §1

[3] = test system: downy bromegrass (Bromus tectorum); assay: Test B pre-/postemergence plant response; details: for Bromegrass, Downy plant response rating: 8 g ai/ha
In short: as §1

[4] = test system: woolly cupgrass (Eriochloa villosa); assay: Test B pre-/postemergence plant response; details: for Cupgrass, Woolly plant response rating: 8 g ai/ha
In short: as §1

[5] = test system: green foxtail (Setaria viridis); assay: Test B pre-/postemergence plant response; details: for Foxtail, Green plant response rating: 8 g ai/ha
In short: as §1

[6] = test system: pigweed (Amaranthus retroflexus); assay: Test B pre-/postemergence plant response; details: for Pigweed plant response rating: 8 g ai/ha
In short: as §1

wild oat (Avena fatua) = assay: Test B pre-/postemergence plant response; details: for Oat, Wild plant response rating: 8 g ai/ha
In short: as §1

corn (Zea mays) = assay: Test B pre-/postemergence plant response; details: for Corn plant response rating: 8 g ai/ha
In short: as §1

[7] = test system: Russian thistle (Salsola iberica); assay: Test B pre-/postemergence plant response; details: Preemergence
In short: as §1

[8] = test system: large crabgrass (Digitaria sanguinalis); assay: Test B pre-/postemergence plant response; details: for Crabgrass, Large plant response rating: 8 g ai/ha
In short: as §1

[9] = test system: ducksalad (Heteranthera limosa); assay: Test B flooded paddy test plant response
In short: (§2)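 Rice, umbrella sedge, ducksalad and barnyardgrass at 2-leaf stage; pots flooded to 3 cm, compounds applied into paddy water, depth held throughout. Greenhouse 13 to 15 days, then visual rating vs untreated controls on 0–100 scale (0 no effect, 100 complete control); dash means no test result.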

[10] = test system: barnyardgrass (Echinochloa crus-galli); assay: Test B flooded paddy test plant response
In short: as §2

[11] = test system: umbrella sedge (Cyperus difformis); assay: Test B flooded paddy test plant response
In short: as §2

rice (Oryza sativa) = assay: Test B flooded paddy test plant response
In short: as §2

[12] = 31 g ai/ha, scale 0 to 100 (0 no effect, 100 complete control)
[13] = Postemergence, 16 g ai/ha, scale 0 to 100
[14] = Postemergence, 31 g ai/ha, scale 0 to 100, 0 no effect, 100 complete control
[15] = Postemergence, 62 g ai/ha, scale 0 to 100, 0 no effect, 100 complete control
[16] = Preemergence, 16 g ai/ha, scale 0 to 100 (0 no effect, 100 complete control)
[17] = Preemergence, 31 g ai/ha, 0 to 100 scale, 0 no effect, 100 complete control
[18] = Preemergence, 62 g ai/ha, scale 0 to 100
[19] = Preemergence, 31 g ai/ha, scale 0 to 100 (0 no effect, 100 complete control)
[20] = Flood (flooded paddy test), 62 g ai/ha, scale 0 to 100, 0 no effect, 100 complete control
[21] = Flood (flooded paddy test), 125 g ai/ha, scale 0 to 100, 0 no effect, 100 complete control
[22] = Flood (flooded paddy test), 250 g ai/ha, scale 0 to 100, 0 no effect, 100 complete control
[23] = Flood, 31 g ai/ha, scale 0 to 100

CCc1cc(-c2ccc(Cl)cc2)nn1-c1c(OC(=O)OC(C)C)cnn(C)c1=O [Compound 41]
Plant response rating, Nightshade, E. B. ([1]; 16 g ai/ha, scale 0 to 100 (0 no effect, 100 complete control)): 0
Plant response rating, Nightshade, E. B. [1, 12]: 0
Plant response rating, Nightshade, E. B. ([1]; 62 g ai/ha, scale 0 to 100): 0
Nightshade, E. B. plant response rating ([1]; 8 g ai/ha, scale 0 to 100): 0
Foxtail, Giant plant response rating ([2]; postemergence, 0-100 scale): 100
Plant response rating, Foxtail, Giant [2, 13]: 100
Plant response rating, Foxtail, Giant [2, 14]: 100
Plant response rating, Foxtail, Giant [2, 15]: 100
Plant response rating, Foxtail, Giant [2, 16]: 0
Plant response rating, Foxtail, Giant [2, 17]: 0
Plant response rating, Foxtail, Giant [2, 18]: 98
Foxtail, Giant plant response rating ([2]; Preemergence, scale 0 to 100): 0
Bromegrass, Downy plant response rating ([3]; postemergence, 0-100 scale): 30
Plant response rating, Bromegrass, Downy [3, 13]: 50
Plant response rating, Bromegrass, Downy [3, 14]: 60
Plant response rating, Bromegrass, Downy [3, 15]: 85
Plant response rating, Bromegrass, Downy [3, 16]: 70
Plant response rating, Bromegrass, Downy [3, 17]: 75
Plant response rating, Bromegrass, Downy [3, 18]: 80
Bromegrass, Downy plant response rating ([3]; Preemergence, scale 0 to 100): 70
Cupgrass, Woolly plant response rating ([4]; postemergence, 0-100 scale): 95
Plant response rating, Cupgrass, Woolly [4, 13]: 100
Plant response rating, Cupgrass, Woolly [4, 14]: 100
Plant response rating, Cupgrass, Woolly [4, 15]: 100
Plant response rating, Cupgrass, Woolly [4, 16]: 0
Plant response rating, Cupgrass, Woolly [4, 17]: 0
Plant response rating, Cupgrass, Woolly [4, 18]: 75
Cupgrass, Woolly plant response rating ([4]; Preemergence, scale 0 to 100): 0
Foxtail, Green plant response rating ([5]; postemergence, 0-100 scale): 85
Plant response rating, Foxtail, Green [5, 13]: 100
Plant response rating, Foxtail, Green [5, 14]: 100
Plant response rating, Foxtail, Green [5, 15]: 100
Plant response rating, Foxtail, Green [5, 16]: 100
Plant response rating, Foxtail, Green [5, 17]: 100
Plant response rating, Foxtail, Green [5, 18]: 100
Foxtail, Green plant response rating ([5]; Preemergence, scale 0 to 100): 100
Pigweed plant response rating ([6]; postemergence, 0-100 scale): 0
Plant response rating, Pigweed [6, 13]: 0
Plant response rating, Pigweed [6, 14]: 0
Plant response rating, Pigweed [6, 15]: 0
Plant response rating, Pigweed [6, 16]: 0
Plant response rating, Pigweed [6, 19]: 0
Plant response rating, Pigweed [6, 18]: 0
Pigweed plant response rating ([6]; Preemergence, scale 0 to 100): 0
Oat, Wild plant response rating (wild oat (Avena fatua); postemergence, 0-100 scale): 100
Plant response rating, Oat, Wild (wild oat (Avena fatua); [13]): 100
Plant response rating, Oat, Wild (wild oat (Avena fatua); [14]): 100
Plant response rating, Oat, Wild (wild oat (Avena fatua); [15]): 100
Plant response rating, Oat, Wild (wild oat (Avena fatua); [16]): 85
Plant response rating, Oat, Wild (wild oat (Avena fatua); [19]): 95
Plant response rating, Oat, Wild (wild oat (Avena fatua); [18]): 95
Oat, Wild plant response rating (wild oat (Avena fatua); Preemergence, scale 0 to 100): 70
Corn plant response rating (corn (Zea mays); postemergence, 0-100 scale): 85
Plant response rating, Corn (corn (Zea mays); [13]): 85
Plant response rating, Corn (corn (Zea mays); [14]): 95
Plant response rating, Corn (corn (Zea mays); [15]): 95
Plant response rating, Corn (corn (Zea mays); [16]): 65
Plant response rating, Corn (corn (Zea mays); [17]): 85
Plant response rating, Corn (corn (Zea mays); [18]): 95
Corn plant response rating (corn (Zea mays); Preemergence, scale 0 to 100): 45
Plant response rating, Russian Thistle [7, 12]: 0
Plant response rating, Russian Thistle ([7]; 62 g ai/ha, scale 0 to 100): 0
Crabgrass, Large plant response rating ([8]; postemergence, 0-100 scale): 70
Plant response rating, Crabgrass, Large [8, 13]: 85
Plant response rating, Crabgrass, Large [8, 14]: 100
Plant response rating, Crabgrass, Large [8, 15]: 100
Plant response rating, Crabgrass, Large [8, 16]: 0
Plant response rating, Crabgrass, Large [8, 17]: 0
Plant response rating, Crabgrass, Large [8, 18]: 20
Crabgrass, Large plant response rating ([8]; Preemergence, scale 0 to 100): 0
Plant response rating, Ducksalad [9, 20]: 0
Plant response rating, Ducksalad [9, 21]: 40
Plant response rating, Ducksalad [9, 22]: 70
Plant response rating, Ducksalad [9, 23]: 0
Plant response rating, Barnyardgrass [10, 20]: 75
Plant response rating, Barnyardgrass [10, 21]: 80
Plant response rating, Barnyardgrass [10, 22]: 95
Plant response rating, Barnyardgrass [10, 23]: 60
Plant response rating, Sedge, Umbrella [11, 20]: 0
Plant response rating, Sedge, Umbrella [11, 21]: 0
Plant response rating, Sedge, Umbrella [11, 22]: 85
Plant response rating, Sedge, Umbrella [11, 23]: 0
Plant response rating, Rice (rice (Oryza sativa); [20]): 20
Plant response rating, Rice (rice (Oryza sativa); [21]): 50
Plant response rating, Rice (rice (Oryza sativa); [22]): 80
Plant response rating, Rice (rice (Oryza sativa); [23]): 15
